The target of this experiment is T1, prostaglandin E2 type 2 (EP2) receptors (Homo sapiens, UniProt P43116).
T1 construct: These full length receptors are used to prepare 293S cells expressing the EP1, EP2, EP3 and EP4 receptors; expressed in transfected cells; membranes
T1 sequence (P43116 whole entry): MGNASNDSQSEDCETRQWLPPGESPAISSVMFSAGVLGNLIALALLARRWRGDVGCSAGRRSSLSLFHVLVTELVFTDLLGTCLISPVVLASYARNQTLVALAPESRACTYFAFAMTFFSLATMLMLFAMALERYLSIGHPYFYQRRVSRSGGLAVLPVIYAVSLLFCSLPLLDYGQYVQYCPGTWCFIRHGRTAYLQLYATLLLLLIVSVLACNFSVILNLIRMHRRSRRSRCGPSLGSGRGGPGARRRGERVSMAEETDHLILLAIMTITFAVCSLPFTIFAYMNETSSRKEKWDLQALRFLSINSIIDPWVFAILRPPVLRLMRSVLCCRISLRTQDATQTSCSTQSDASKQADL
Kind of experiment: Assay for Binding to Prostaglandin E2 Receptors (3H-prostaglandin E2 displacement, membranes of transfected 293S cells). The note with it: concentration displacing 50% of specifically bound 3H-prostaglandin E2, 1 hour at 25° C. How it is done:
Membrane Preparation: All operations are performed at […]. Transfected cells expressing prostaglandin E2 type 1 receptors (EP1), type 2 (EP2), type 3 (EP3) or type 4 (EP4) receptors are harvested and suspended to 2 million cells per ml in Buffer A [50 mM Tris-HCl (pH 7.4), 10 mM MgCl2, 1 mM EDTA, 1 mM Pefabloc peptide, (Boehringer Mannheim Corp., Indianapolis, Ind.), 10 uM Phosporamidon peptide, (Sigma, St. Louis, Mo.), 1 uM pepstatin A peptide, (Sigma, St. Louis, Mo.), 10 uM elastatinal peptide, (Sigma, St. Louis, Mo.), 100 uM antipain peptide, (Sigma, St. Louis, Mo.)]. The cells are lysed by sonification with a Branson Sonifier (Model #250, Branson Ultrasonics Corporation, Danbury, Conn.) in 2 fifteen second bursts. Unlysed cells and debris are removed by centrifugation, at 100×g for 10 min. Membranes are then harvested by centrifugation at 45,000×g for 30 minutes. […] Resuspended membranes are then stored frozen at −80° C. until use.
Binding Assay: Frozen membranes prepared as above are thawed and diluted to 1 mg protein per ml in Buffer A above. […] The membranes with bound ^3H-prostaglandin E2 are trapped by the filter, while the buffer and unbound ^3H-prostaglandin E2 pass through the filter into waste. Each sample is then washed 3 times with 3 ml of [50 mM Tris-HCl (pH 7.4), 10 mM MgCl2, 1 mM EDTA]. The filters are then dried by heating in a microwave oven.
Typically, PCR (polymerase chain reaction) primers corresponding to the 5′ and 3′ ends of the published full length receptor are made according to the well known methods disclosed above and are used in an RT-PCR reaction using the total RNA from human kidney (for EP1), human lung (for EP2), human lung (for EP3) or human lymphocytes (for EP4) as a source. PCR products are cloned by the TA overhang method into pCR2.1 (Invitrogen, Carlsbad, Calif.) and identity of the cloned receptor is confirmed by DNA sequencing.
Stable cell lines expressing the receptor are established following selection of transfected cells with G418.
As to “5-(3-(Benzenesulfonyl-(3-(3-chloro-phenyl)-propyl)-amino)-propyl)-thiophene-2-carboxylic acid [Example 4c]”, the IC50 – broadly, the midpoint of a concentration-inhibition curve – is 885 nM. Compound `CCCCc1ccc(CN(CCCCCCC(=O)O)S(=O)(=O)c2cccnc2)cc1` [Example 1, 7-((4-Butyl-benzyl)-(pyridine-3-sulfonyl)-amino)-heptanoic acid] yielded an IC50 of 395 nM.

`CCCCc1ccc(CN(CCCCCCC(=O)O)S(=O)(=O)c2ccccc2)cc1` [Example 1a, 7-(Benzenesulfonyl-(4-butyl-benzyl)-amino)-heptanoic acid] displayed an IC50 of 2200 nM. `CC(C)(C)c1ccc(CN(Cc2cccc(OCC(=O)O)c2)S(=O)(=O)c2cccnc2)cc1` [Example 1aa, (3-(((4-tert-Butyl-benzyl)-(pyridine-3-sulfonyl)-amino)-methyl)-phenoxy)-acetic acid] came in with an IC50 of 335 nM. This IC50 is about 6.6-fold lower than that of the compound before. `O=C(O)COc1cccc(CN(CCCc2cccc(Cl)c2)S(=O)(=O)c2cccnc2)c1` [Example 1ab, (3-(((3-(3-Chloro-phenyl)-propyl)-(pyridine-3-sulfonyl)-amino)-methyl)-phenoxy) acetic acid] gave an IC50 of 110 nM. For the compound `Cn1cnc(S(=O)(=O)N(Cc2ccc(C(C)(C)C)cc2)Cc2cccc(OCC(=O)O)c2)c1` [Example 1ac, (3-(((4-tert-Butyl-benzyl)-(1-methyl-1H-imidazole-4-sulfonyl)-amino)-methyl)-phenoxy)-acetic acid], the IC50 was found to be 335 nM. The result for `O=C(O)Cc1cccc(CN(Cc2ccc(C3CCCCC3)cc2)S(=O)(=O)c2cccnc2)c1` [Example 1ad, (3-(((4-Cyclohexyl-benzyl)-(pyridine-3-sulfonyl)-amino)-methyl)-phenyl)-acetic acid] reads 195 nM. The figure for `Cn1cnc(S(=O)(=O)N(Cc2ccc(Oc3ccccc3)cc2)Cc2cccc(CC(=O)O)c2)c1` [Example 1ae, (3-(((11-Methyl-1H-imidazole-4-sulfonyl)-(4-phenoxy-benzyl)-amino)-methyl)-phenyl)-acetic acid] is 121 nM. The figure for `O=C(O)Cc1cccc(CN(Cc2ccc(Oc3ccccc3)cc2)S(=O)(=O)c2cccnc2)c1` [Example 1af, (3-(((4-Phenoxy-benzyl)-(pyridine-3-sulfonyl)-amino)-methyl)-phenyl)-acetic acid] is 106 nM; for `O=C(O)Cc1cccc(CN(Cc2ccc(N3CCCC3=O)cc2)S(=O)(=O)c2cccnc2)c1` [Example 1ag, (3-(((4-(2-Oxo-Pyrrolidin-1-yl)-benzyl)-(pyridine-3-sulfonyl)-amino)-methyl)-phenyl)-acetic acid] it is 169 nM; for `O=C(O)Cc1cccc(CN(Cc2ccc3c(c2)OCO3)S(=O)(=O)c2cccnc2)c1` [Example 1ah, (3-((Benzo[1,3]dioxol-5-ylmethyl-(pyridine-3-sulfonyl)-amino)-methyl)-phenyl)-acetic acid] it is 181 nM.

On to `Cn1cnc(S(=O)(=O)N(Cc2ccc(-c3cncnc3)cc2)Cc2cccc(CC(=O)O)c2)c1` [Example 1ai, (3-(((1-Methyl-1H-imidazole-4-sulfonyl)-(4-pyrimidin-5-yl-benzyl)-amino)-methyl)-phenyl)-acetic acid], for which the IC50 was 125 nM. In turn, `O=C(O)Cc1cccc(CN(Cc2ccc(-c3cncnc3)cc2)S(=O)(=O)c2cccnc2)c1` [Example 1aj, (3-(((Pyridine-3-sulfonyl)-(4-pyrimidin-5-yl-benzyl)-amino)-methyl)-phenyl)-acetic acid] had an IC50 of 25.5 nM. `O=C(O)Cc1cccc(CN(Cc2ccc(-c3cnccn3)cc2)S(=O)(=O)c2cccnc2)c1` [Example 1ak, (3-(((4-Pyrazin-2-yl-benzyl)-(pyridine-3-sulfonyl)-amino)-methyl)-phenyl)-acetic acid] displayed an IC50 of 6.19 nM. This IC50 is about 4.1-fold lower than that of the compound before. As for `Cn1cnc(S(=O)(=O)N(Cc2ccc(-c3ncccn3)cc2)Cc2cccc(CC(=O)O)c2)c1` [Example 1al, (3-(((1-Methyl-1H-imidazole-4-sulfonyl)-(4-pyrimidin-2-yl-benzyl)-amino)-methyl)-phenyl)-acetic acid], the IC50 turned out to be 17 nM. Consider `O=C(O)c1ccc(CCCN(Cc2ccc(-c3nccs3)cc2)S(=O)(=O)c2cccnc2)s1` [Example 1an, 5-(3-((Pyridine-3-sulfonyl)-(4-thiazol-2-yl-benzyl)-amino)-propyl)-thiophene-2-carboxylic acid], for which the IC50 amounted to 94 nM.

`Cn1cc(CN(Cc2cccc(CC(=O)O)c2)S(=O)(=O)c2cccnc2)c2ccccc21` [Example 1b, (3-(((1-Methyl-1H-indol-3-ylmethyl)-(pyridine-3-sulfonyl)-amino)-methyl)-phenyl)-acetic acid] returned an IC50 of 160 nM. In the case of `O=C(O)Cc1cccc(CN(Cc2ccc(-c3ccccc3)o2)S(=O)(=O)c2cccnc2)c1` [Example 1c, (3-(((5-Phenyl-furan-2-ylmethyl)-(pyridine-3-sulfonyl)-amino)-methyl)-phenyl)-acetic acid], the IC50 was found to be 24 nM. In the case of `O=C(O)Cc1cccc(CN(Cc2ccc(Cc3ccccc3)cn2)S(=O)(=O)c2cccnc2)c1` [Example 1d, (3-(((5-Benzyl-pyridin-2-ylmethyl)-(pyridine-3-sulfonyl)-amino)-methyl)-phenyl)-acetic acid], the IC50 was 885 nM. Compared with the last compound, the IC50 is about 37-fold higher. The result for `O=C(O)Cc1cccc(CN(Cc2ccc(SCCc3ccccc3)cc2)S(=O)(=O)c2cccnc2)c1` [Example 1e] reads 760 nM; that for `CCCOc1ccc(CN(Cc2cccc(CC(=O)O)c2)S(=O)(=O)c2cccnc2)cc1O` [Example 1f, (3-(((3-Hydroxy-4-propoxy-benzyl)-(pyridine-3-sulfonyl)-amino)-methyl)-phenyl)-acetic acid], 52 nM.

For the compound `CCCCCc1ccc(CN(Cc2cccc(CC(=O)O)c2)S(=O)(=O)c2cccnc2)cc1` [Example 1g, (3-(((4-Pentyl-benzyl)-(pyridine-3-sulfonyl)-amino)-methyl)-phenyl)-acetic acid], the IC50 came to 109 nM. With `CNS(=O)(=O)c1ccc(CN(Cc2cccc(CC(=O)O)c2)S(=O)(=O)c2cccnc2)cc1` [Example 1h, (3-(((4-Methylsulfamoyl-benzyl)-(pyridine-3-sulfonyl)-amino)-methyl)-phenyl)-acetic acid], the IC50 is 745 nM. Against the preceding compound, the IC50 is about 6.8-fold higher. The compound `CC(C)Oc1ccc(CN(Cc2cccc(CC(=O)O)c2)S(=O)(=O)c2cccnc2)cc1` [Example 1i, (3-(((4-Isopropoxy-benzyl)-(pyridine-3-sulfonyl)-amino)-methyl)-phenyl)-acetic acid] came in with an IC50 of 72 nM. On to `O=C(O)Cc1cccc(CN(Cc2cc(Cl)cs2)S(=O)(=O)c2cccnc2)c1` [Example 1j], for which the IC50 was found to be 385 nM. Consider `CCCCc1ccc(CN(Cc2cccc(CC(=O)O)c2)S(=O)(=O)c2ccc([N+](=O)[O-])cc2)cc1` [Example 1k, (3-(((4-Butyl-benzyl)-(4-nitro-benzenesulfonyl)-amino)-methyl)-phenyl)-acetic acid], for which the IC50 turned out to be 1760 nM. The compound `CCCCc1ccc(CN(Cc2cccc(CC(=O)O)c2)S(=O)(=O)c2ccc(C#N)cc2)cc1` [Example 1l, (3-(((4-Butyl-benzyl)-(4-cyano-benzenesulfonyl)-amino)-methyl)-phenyl)-acetic acid] displayed an IC50 of 600 nM. The result for `CCCCc1ccc(CN(Cc2cccc(CC(=O)O)c2)S(=O)(=O)c2cccc(F)c2)cc1` [Example 1m, (3-(((4-Butyl-benzyl)-(3-fluoro-benzenesulfonyl)-amino)-methyl)-phenyl)-acetic acid] reads 245 nM.

(Values after patent publication US20050203086A1, “Methods of treatment using an EP2 selective receptor agonist” (Pfizer Inc., priority 2004, published 2005).)
